Measured values reported in article PMC9190099, “Menthol carbonates as potent antiparasitic agents: synthesis and in vitro studies along with computer-aided approaches” (BMC Complementary Medicine and Therapies, 2022).
Read-outs that look alike come from different tables or passages of the source.

Legend:
[1] = system: Leishmania amazonensis promastigotes; parameters: method as in earlier work; conditions: ref 53 (Silva et al. 2017), read-out: EC50 against Leishmania amazonensis promastigotes; cited from earlier work
[2] = system: L. branziliensis; parameters: method as in PMID 28509873; conditions: previous studies; read-out: EC50 reported for L. branziliensis; cited from earlier work
[3] = system: T. cruzi intracellular amastigotes (Tulahuen strain); test: In vitro activity for T. cruzi amastigotes in U-937 cells; assay type: cell-based, Trypanosoma cruzi; conditions: for Trypanocidal activity IS (Index of Selectivity = LC50/EC50): LC50 U-937 / EC50 T. cruzi; for EC50: Trypanosoma cruzi, TULAHUEN, U-937, intracellular amastigotes of T. cruzi, 72 h, read-out: Trypanocidal activity EC50 (median effective concentration)
Description: (§1) Compounds were solubilized in DMSO (1 mg/mL, w/v).
Plates were incubated at 37 °C, 5% CO2. After 72 h of incubation, cells were infected with 5:1 […] of Tulahuen strain (24 h of growing) per cell ratio. Plates were incubated at 37 °C, 5% CO2. After 24 h of incubation 100 μL of each compound concentration were added to each well and plates were incubated again at 37 °C, 5% CO2. After 72 h of incubation 100 μL of chlorophenol red-β-D-galactopyranoside (CPRG) at 100 µM and 0.1%, Nonidet P-40 was added, and after 3 h of incubation, absorbance was read at 570 nm (Varioskan, Thermo). Infected cells exposed to Benznidazole (BZN) were used as a control for trypanocidal activity (positive control) while infected and non-treated cells were used as a control for infection (negative control). Nonspecific absorbance was corrected as described above. Each measurement was done in triplicate in two independent experiments.
(§2) Then, these percentages of mortality were used to calculate the median lethal concentrations (LC50) by Probit analysis using Graphpad Prism 8 software. In the case of antiparasitic activity (L. braziliensis, T. cruzi and P. falciparum), the percentage in the reduction of parasites for each concentration tested was quantified using Eq. 2:
(§3) 2 %Parasitereduction=100ODorMFIexposedparasites/ODorMFIcontrolparasitesx100
(§4) All experiments were performed in triplicate. Both cytotoxicity and antiparasitic activity were classified as high, moderate, or low, according to ranges previously established based on the own hit criteria.

[4] = in vitro
Description: Then, 100 µL of cell suspension and 100 μL of each concentration of the compounds were placed in each well of 96-well tissue culture microplate, and plates were incubated again at 37 °C, 5% CO2. […] The reaction was stopped with 100 μL/well of DMSO and absorbance was recorded at 570 nm (Varioskan Flash, Thermo Scientific, Waltham, MA, USA). […] Each measurement was done in triplicate in two independent experiments.
To calculate the cytotoxicity, the percentages of mortality for each concentration tested were calculated according to Eq. 1:
1 %Mortality=100-ODexposedcells/ODnonexposedcellsx100
as §2, §4

[5] = system: L. braziliensis intracellular amastigotes (HMOM/COL/88/UA301-EGFP); test: In vitro activity against L. braziliensis amastigotes in U-937 cells (flow cytometry); assay type: cell-based, Leishmania braziliensis; conditions: for Leishmanicidal activity IS (Index of Selectivity = LC50/EC50): LC50 U-937 / EC50 L. braziliensis; for EC50: intracellular amastigotes of L. braziliensis, 72 h, read-out: Leishmanicidal activity EC50 (median effective concentration); for Leishmanicidal activity class: L. braziliensis amastigotes
Description: as §1
One ml was dispensed into each well of a 24-well culture plate. After 72 h, cells were infected with promastigotes of L. braziliensis (HMOM/COL/88/UA301-EGFP) in a proportion of 15:1 (parasites per cell ratio). Plates were incubated at 34 °C, 5% CO2, and 3 h after non-internalized promastigotes were removed by washing twice with phosphate buffer (PBS). Plates were incubated again at 34 °C, 5% CO2, and 24 h later cells were washed with warm PBS and medium replaced. […] After 72 h, cells were removed using trypsin/EDTA solution and washed twice with PBS by centrifuging 10 min at 1100 rpm, 4 °C. […] The percentage of infected cells was calculated using dot plot analysis according to positive events for green fluorescence and then parasite load in these infected cells was calculated by histogram analysis according to the mean fluorescence intensity (MFI). Infected cells were used as control of infection (negative control) and infected cells exposed to Amphotericin B (AMB) were used as control of antileishmanial activity (positive control).
as §2, §3, §4

[6] = system: P. falciparum (3D7 strain); test: In vitro antiplasmodial activity (pLDH); assay type: cell-based, Plasmodium falciparum; conditions: for Antiplasmodial activity IS (Index of Selectivity = LC50/EC50): LC50 U-937 / EC50 P. falciparum; for EC50: Plasmodium falciparum, P. falciparum 3D7, total forms, 48 h, read-out: Antiplasmodial activity EC50 (median effective concentration); for Antiplasmodial activity class: P. falciparum
Description: Unsynchronized P. falciparum (3D7 strain) culture was adjusted to 0.5% parasitemia and 1% hematocrit in RPMI medium enriched with 3% lipid-rich bovine serum albumin-Albumax II. In each well of a 96-well tissue culture plate, 100 µl of parasite suspension and 100 µl of each dilution of the compounds were added. Plates were incubated for 48 h at 37 °C, 90% N2, 5% CO2, 5% O2. After incubation, supernatants were harvested and parasites were subjected to three 20–minute freeze–thaw cycles. In a second flat–bottomed 96-well microtiter plate were dispensed 100 µL of Malstat reagent, pH 9.0, 25 µL of NBT/PES solution, and 15 µL of lysed parasites. Plates were incubated in the dark at 37 °C for 90 min and color development of the pLDH reaction was read at 650 nm (Varioskan, Thermo). […] Nonspecific absorbance was corrected by subtracting optical density (OD) of the blank. […]. Each measurement was done in triplicate in two independent experiments.
as §2, §4

[7] = system: Echinococcus multilocularis protoscoleces; parameters: method as in PMID 32101761; conditions: E. multilocularis protoscoleces, in vitro; cited from earlier work
[8] = system: murine model of alveolar echinococcosis; parameters: method as in PMID 32101761; conditions: listed as menthol-pentanol prodrug; cited from earlier work
[9] = Leishmania braziliensis, U-937, 72 h

C=CCc1ccc(O)c(OC)c1 [eugenol]
EC50 [1]: 505 µM
EC50 [2]: 60.4 µM

CC1CCC(C(C)C)C(OC(=O)OC(C)C)C1 (centres unmarked) [Compound 4, Isopropyl(2-Isopropyl-5-methylcyclohexanol)carbonate]
Trypanocidal activity IS (Index of Selectivity = LC50/EC50) [3]: 0.1
EC50 [3]: 2060 ± 175 µM
CC50 at 72 h [4]: 145 ± 74.5 µM
Leishmanicidal activity IS (Index of Selectivity = LC50/EC50) [5]: 3.4
EC50 [5, 9]: 43.2 ± 0.3 µM
Antiplasmodial activity IS (Index of Selectivity = LC50/EC50) [6]: 2.4
EC50 [6]: 60.7 ± 1 µM

CCCCCCCCOC(=O)OC1CC(C)CCC1C(C)C (centres unmarked) [Compound 9, Octyl(2-Isopropyl-5-methylcyclohexanol)carbonate]
Trypanocidal activity IS (Index of Selectivity = LC50/EC50) [3]: 1.7
EC50 [3]: 26.7 ± 4.6 µM
CC50 at 72 h [4]: 44.1 ± 3.8 µM
Leishmanicidal activity IS (Index of Selectivity = LC50/EC50) [5]: 0.1
EC50 [5, 9]: 463 ± 206 µM
Antiplasmodial activity IS (Index of Selectivity = LC50/EC50) [6]: 0.7
EC50 [6]: 62.4 ± 6.5 µM

CCCCCCCOC(=O)OC1CC(C)CCC1C(C)C (centres unmarked) [Compound 8, Heptyl(2-Isopropyl-5-methylcyclohexanol)carbonate]
Trypanocidal activity IS (Index of Selectivity = LC50/EC50) [3]: 1.8
EC50 [3]: 27.6 ± 4.4 µM
CC50 at 72 h [4]: 48.4 ± 6.1 µM
EC50 [5, 9]: > 23.5 µM
Antiplasmodial activity IS (Index of Selectivity = LC50/EC50) [6]: 0.7
EC50 [6]: 67.4 ± 5.8 µM

CCCCOC(=O)OC1CC(C)CCC1C(C)C (centres unmarked) [Compound 5, Butyl(2-Isopropyl-5-methylcyclohexanol)carbonate]
Trypanocidal activity IS (Index of Selectivity = LC50/EC50) [3]: 1.7
EC50 [3]: 122 ± 21.4 µM
CC50 at 72 h [4]: 207 ± 38.2 µM
Leishmanicidal activity class [5]: moderate (moderate (EC50 > 50 μM < 100 μM))
Leishmanicidal activity IS (Index of Selectivity = LC50/EC50) [5]: 3.5
EC50 [5, 9]: 53.3 µM
EC50 [5]: 59.3 ± 1.4 µM
Antiplasmodial activity IS (Index of Selectivity = LC50/EC50) [6]: 3.7
EC50 [6]: 56.3 ± 1 µM

O=C(Cn1ccnc1[N+](=O)[O-])NCc1ccccc1 [BNZ, Benznidazole, reference compound]
Trypanocidal activity IS (Index of Selectivity = LC50/EC50) [3]: 12.8
EC50 [3]: 60.1 ± 12.2 µM
CC50 at 72 h [4]: > 768 µM

CCCCCCOC(=O)OC1CC(C)CCC1C(C)C (centres unmarked) [Compound 7, Hexyl(2-Isopropyl-5-methylcyclohexanol)carbonate]
Trypanocidal activity IS (Index of Selectivity = LC50/EC50) [3]: 1.6
EC50 [3]: 46.3 ± 4.9 µM
CC50 at 72 h [4]: 73.3 ± 15.8 µM
Leishmanicidal activity IS (Index of Selectivity = LC50/EC50) [5]: 2.6
EC50 [5, 9]: 28.2 ± 1.1 µM
Antiplasmodial activity IS (Index of Selectivity = LC50/EC50) [6]: 0.2
Antiplasmodial activity class [6]: low (low activity (EC50 > 100 μM))
EC50 [6]: 432 ± 239 µM

COC(=O)OC1CC(C)CCC1C(C)C (centres unmarked) [Compound 1, Metyl(2-Isopropyl-5-methylcyclohexanol)carbonate]
Trypanocidal activity IS (Index of Selectivity = LC50/EC50) [3]: 0.6
EC50 [3]: 105 ± 34.5 µM
CC50 at 72 h [4]: 68.5 ± 6.7 µM
Leishmanicidal activity IS (Index of Selectivity = LC50/EC50) [5]: 3.0
EC50 [5, 9]: 22.9 ± 2.8 µM
Antiplasmodial activity IS (Index of Selectivity = LC50/EC50) [6]: 0.5
Antiplasmodial activity class [6]: low (low activity (EC50 > 100 μM))
EC50 [6]: 127 ± 9.9 µM

COc1cccc2c1C(=O)c1c(O)c3c(c(O)c1C2=O)C[C@@](O)(C(=O)CO)C[C@@H]3O[C@H]1C[C@H](N)[C@H](O)[C@H](C)O1 [DOXO, Doxorubicin, reference compound]
CC50 at 72 h [4]: 1.7 ± 0.2 µM

CC1CCC(C(C)C)C(O)C1 (centres unmarked) [Menthol, 2-Isopropyl-5-methylcyclohexanol]
EC50 [1]: 1270 µM
Trypanocidal activity IS (Index of Selectivity = LC50/EC50) [3]: 1.5
Trypanocidal activity class ([3]; T. cruzi amastigotes): low (low activity (EC50 > 100 μM))
EC50 [3]: 173 ± 28.9 µM
CC50 at 72 h [4]: 266 ± 188 µM
EC50 [5, 9]: > 128 µM
Antiplasmodial activity IS (Index of Selectivity = LC50/EC50) [6]: 0.7
EC50 [6]: 358 ± 51 µM

CCOC(=O)OC1CC(C)CCC1C(C)C (centres unmarked) [Compound 2, Etyl(2-Isopropyl-5-methylcyclohexanol)carbonate]
Trypanocidal activity IS (Index of Selectivity = LC50/EC50) [3]: 3.1
EC50 [3]: 33.8 ± 4.3 µM
CC50 at 72 h [4]: 103 ± 35.8 µM
Leishmanicidal activity IS (Index of Selectivity = LC50/EC50) [5]: 3.6
EC50 [5, 9]: 28.4 ± 0.4 µM
Antiplasmodial activity IS (Index of Selectivity = LC50/EC50) [6]: 3.6
Antiplasmodial activity class [6]: high (high (EC50 < 50 μM))
EC50 [6]: 28.4 ± 0.4 µM

CCCCCOC(=O)OC1CC(C)CCC1C(C)C (centres unmarked) [Compound 6, Pentyl(2-Isopropyl-5-methylcyclohexanol)carbonate]
protoscolicidal effect [7]: greater protoscolicidal effect than menthol
Trypanocidal activity IS (Index of Selectivity = LC50/EC50) [3]: 7.4
EC50 [3]: 29.6 ± 1.2 µM
clinical efficacy [8]: clinical efficacy similar to Albendazole
Leishmanicidal activity class [5]: moderate (moderate (EC50 > 50 μM < 100 μM))
EC50 [5, 9]: 96.7 ± 0.6 µM

CCCOC(=O)OC1CC(C)CCC1C(C)C (centres unmarked) [Compound 3, Propyl(2-Isopropyl-5-methylcyclohexanol)carbonate]
Trypanocidal activity IS (Index of Selectivity = LC50/EC50) [3]: 1.7
EC50 [3]: 33.8 µM
CC50 at 72 h [4]: 57 ± 14.4 µM
Leishmanicidal activity IS (Index of Selectivity = LC50/EC50) [5]: 1.8
EC50 [5, 9]: 31.8 ± 4.1 µM
Antiplasmodial activity IS (Index of Selectivity = LC50/EC50) [6]: 0.9
EC50 [6]: 60.7 ± 1.2 µM

C[C@@H]1[C@H](O)[C@@H](C)/C=C/C=C/C=C/C=C/C=C/C=C/C=C/[C@H](O[C@@H]2O[C@H](C)[C@@H](O)[C@H](N)[C@@H]2O)C[C@@H]2O[C@](O)(C[C@@H](O)C[C@@H](O)[C@H](O)CC[C@@H](O)C[C@@H](O)CC(=O)O[C@H]1C)C[C@H](O)[C@H]2C(=O)O [AMB, Amphotericin B, reference compound]
CC50 at 72 h [4]: 53.9 ± 7.4 µM
Leishmanicidal activity IS (Index of Selectivity = LC50/EC50) [5]: 134.8
EC50 ([5]; Leishmania braziliensis, U-937): 0.4 ± 0.1 µM
